Source: patent US5948750A, “Conjugates useful in the treatment of prostate cancer” (priority 1997, dated 1999)
Read-outs that look alike come from different tables or passages of the source. Square brackets hold non-standard residues; d marks the D form. Peptide text beside a SMILES is read from it. * marks the point of attachment. Doxorubicin(3'-N) = COc1cccc2c1C(=O)c1c(O)c3c(c(O)c1C2=O)C[C@@](O)(C(=O)CO)C[C@@H]3O[C@H]1C[C@H](N*)[C@H](O)[C@H](C)O1; Decanoyl(3,6,9-trioxa) = COCCOCCOCC(=O)*; Hyp = O=C(O)[C@@H]1C[C@@H](O)CN1; Chg = N[C@H](C(=O)O)C1CCCCC1; ΔPro = O=C(O)[C@@H]1C=CCN1

What was measured:
free PSA [1] = molecular target: T1, free PSA (Homo sapiens, UniProt P07288); format: biochemical; conditions: for Substrate cleavage by PSA at 3 hours: oligopeptide to PSA molar ratio 100 to 1; for Time to 50% Substrate Cleavage by PSA: free psa
T1 construct: required for 50% cleavage of the noted oligopeptides with enzymatically active free PSA
T1 sequence (P07288 25-261): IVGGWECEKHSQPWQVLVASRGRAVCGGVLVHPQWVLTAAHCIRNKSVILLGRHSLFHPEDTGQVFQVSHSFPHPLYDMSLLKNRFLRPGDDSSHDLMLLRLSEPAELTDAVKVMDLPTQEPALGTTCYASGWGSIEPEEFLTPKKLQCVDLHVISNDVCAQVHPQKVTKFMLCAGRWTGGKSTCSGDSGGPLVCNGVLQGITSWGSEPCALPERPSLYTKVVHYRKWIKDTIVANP
Procedure: The oligopeptides prepared as described in Example 1 were individually dissolved in PSA digestion buffer (12 mM tris(hydroxymethyl)-aminomethane pH 8.0, 25 mM NaCl, 0.5 mM CaCl2) and the solution added to PSA at a molar ration of 100 to 1. Alternatively, the PSA digestion buffer utilized is 50 mM tris(hydroxymethyl)-aminomethane pH 7.4, 140 mM NaCl. The reaction is quenched after various reaction times by the addition of trifluoroacetic acid (TFA) to a final 1% (volume/volume). Alternatively the reaction is quenched with 10 mM ZnCl2. The quenched reaction was analyzed by HPLC on a reversed-phase C18 column using an aqueous 0.1% TFA/acetonitrile gradient. […] Oligopeptides containing free amine moieties (ie. comprising hArg, Orn, Lys and or 3PAL) were tested as TFA salts. All other oligopeptides were tested as neutral compounds.

free PSA [2] = molecular target: T1, free PSA; test: Recognition of oligopeptide-doxorubicin conjugates by free PSA (HPLC cleavage assay); format: biochemical; conditions: conjugate to PSA molar ratio 100 to 1; enzymatically active free PSA
Procedure: The conjugates prepared as described in Examples 3-5 were individually dissolved in PSA digestion buffer (12 mM tris(hydroxymethyl)-aminomethane pH 8.0, 25 mM NaCl, 0.5 mM CaCl2) and the solution added to PSA at a molar ration of 100 to 1. Alternatively, the PSA digestion buffer utilized is 50 mM tris(hydroxymethyl)-aminomethane pH 7.4, 140 mM NaCl. The reaction is quenched after various reaction times by the addition of trifluoroacetic acid (TFA) to a final 1% (volume/volume). Alternatively the reaction is quenched with 10 mM ZnCl2. The quenched reaction was analyzed by HPLC on a reversed-phase C18 column using an aqueous 0.1% TFA/acetonitrile gradient. […] If no salt is indicated for the conjugate, the free conjugate was tested. The oligopeptide-cytotoxic agent conjugates described in Examples 4 and 5 were assessed for the amount of time (in minutes) required for 50% cleavage of the oligopeptide with enzymatically active free PSA and 50% cleavage occurred in less than 2 hours for those conjugates.

DuPRO cells = test: In vitro cytotoxicity of peptidyl derivatives of doxorubicin, Alamar Blue assay, DuPRO; format: cell-based; conditions: 72 HRS, read-out: DUPRO Cell Kill in 72 HRS EC 50
Procedure: (§1) The cytotoxicities of the cleaveable oligopeptide-doxorubicin conjugates, prepared as described in Examples 3 and 4, against a line of cells which is known to be killed by unmodified doxorubicin were assessed with an Alamar Blue assay. Specifically, cell cultures of LNCap prostate tumor cells (which express enzymatically active PSA) or DuPRO cells in 96 well plates was diluted with medium (Dulbecco's […]-α[MEM-α]) containing various concentrations of a given conjugate (final plate well volume of 200 μl). The cells were incubated for 3 days at 37° C., 20 μl of Alamar Blue is added to the assay well. The cells were further incubated and the assay plates were read on a EL-310 ELISA reader at the dual wavelengths of 570 and 600 nm at 4 and 7 hours after addition of Alamar Blue. Relative percentage viability at the various concentration of conjugate tested was then calculated versus control (no conjugate) cultures. If no salt is indicated, the free conjugate was tested.

[3] = test system: LNCap prostate tumor cells (which express enzymatically active PSA); test: In vitro cytotoxicity of peptidyl derivatives of doxorubicin, Alamar Blue assay, LNCaP; format: cell-based; conditions: 72 HRS (3 days at 37° C.), read-out: LNCaP Cell Kill in 72 HRS EC 50
Procedure: as §1

SMILES | Substrate cleavage by PSA at 3 hours (free PSA [1]) | Time to 50% Substrate Cleavage by PSA (free PSA [1]) | Time to 50% Substrate Cleavage by PSA (free PSA [2]) | further results
COCCOCCOCC(=O)N1C[C@H](O)C[C@H]1C(=O)N[C@@H](C)C(=O)N[C@@H](CO)C(=O)N[C@H](C(=O)N[C@@H](CCC(N)=O)C(=O)N[C@@H](CO)C(=O)N[C@@H](CC(C)C)C(=O)O)C1CCCCC1 [PEG(2)-(4-trans-L-Hyp)-ASChgQ-SL-acid] ({Decanoyl(3,6,9-trioxa)}-[Hyp]AS[Chg]QSL-OH) | 44% |  |  | 
CC(=O)N1CCC[C@H]1C(=O)N[C@@H](C)C(=O)N[C@@H](CO)C(=O)N[C@H](C(=O)N[C@@H](CCC(N)=O)C(=O)N[C@@H](CO)C(=O)N[C@@H](CC(C)C)C(=O)O)C1CCCCC1 [Ac-PASChgQ-SL-acid] (Ac-PAS[Chg]QSL-OH) |  | 150 min |  | 
CC(=O)N1C[C@H](O)C[C@H]1C(=O)N[C@H](C(=O)N[C@@H](CCC(N)=O)C(=O)N[C@@H](CO)C(=O)N[C@@H](CO)C(=O)N[C@@H](CO)C(=O)N[C@@H](CC(C)C)C(=O)O)C1CCCCC1 [Ac-(4-trans-L-Hyp)ChgQ-SSSL-acid] (Ac-[Hyp][Chg]QSSSL-OH) | 0% |  |  | 
COc1cccc2c1C(=O)c1c(O)c3c(c(O)c1C2=O)C[C@@](O)(C(=O)CO)C[C@@H]3O[C@H]1C[C@H](NC(=O)[C@H](CC(C)C)NC(=O)[C@H](CO)NC(=O)[C@H](CCC(N)=O)NC(=O)[C@@H](NC(=O)[C@H](CO)NC(=O)[C@H](C)NC(=O)[C@@H]2C[C@@H](O)CN2C(C)=O)C2CCCCC2)[C@H](O)[C@H](C)O1 (relative stereo) [Ac-(4-trans-L-Hyp)ASChgQ-SL-DOX (3'), [N-Ac-(4-trans-L-Hyp)]-Ala-Ser-Chg-Gln-Ser-Leu-Dox] |  |  | 20 min | EC50 (DuPRO cells): 90 µM; EC50 [3]: 4.5 µM
COCCOCCOCC(=O)N1C[C@H](O)C[C@H]1C(=O)N[C@@H](C)C(=O)N[C@@H](CO)C(=O)N[C@H](C(=O)N[C@@H](CCC(N)=O)C(=O)N[C@@H](CO)C(=O)N[C@@H](CC(C)C)C(=O)N[C@H]1C[C@H](O[C@H]2C[C@](O)(C(=O)CO)Cc3c(O)c4c(c(O)c32)C(=O)c2c(OC)cccc2C4=O)O[C@@H](C)[C@H]1O)C1CCCCC1 [PEG(2)-(4-trans-L-Hyp)ASChgQ-SL-DOX (3')] ({Decanoyl(3,6,9-trioxa)}-[Hyp]AS[Chg]QSL-{Doxorubicin(3'-N)}) |  |  | 20 min | 
CC(=O)N1CCC[C@H]1C(=O)N[C@@H](CO)C(=O)N[C@@H](CO)C(=O)N[C@H](C(=O)N[C@@H](CCC(N)=O)C(=O)N[C@@H](CO)C(=O)N[C@H](C(=O)O)C(C)C)C1CCCCC1 [Ac-PSSChgQ-SV-acid] |  | 120 min |  | 
CC(=O)N1CC=C[C@H]1C(=O)N[C@@H](C)C(=O)N[C@@H](CO)C(=O)N[C@H](C(=O)N[C@@H](CCC(N)=O)C(=O)N[C@@H](CO)C(=O)N[C@@H](CC(C)C)C(=O)O)C1CCCCC1 [Ac-(Dehydro-Pro)-ASChgQ-SL-acid] (Ac-[ΔPro]AS[Chg]QSL-OH) | 28% |  |  | 
CC(=O)N1C[C@H](O)C[C@H]1C(=O)N[C@@H](C)C(=O)N[C@@H](CO)C(=O)N[C@H](C(=O)N[C@@H](CCC(N)=O)C(=O)N[C@@H](CO)C(=O)N1Cc2ccccc2C[C@H]1C(=O)O)C1CCCCC1 [Ac-(4-trans-L-Hyp)ASChgQ-S(TIC)-acid] | 16% |  |  | 
CC(=O)N1C[C@H](O)C[C@H]1C(=O)N[C@@H](C)C(=O)N[C@@H](CO)C(=O)N[C@H](C(=O)N[C@@H](CCC(N)=O)C(=O)N[C@@H](CO)C(=O)N[C@@H](CC(C)C)C(=O)O)C1CCCCC1 [Ac-(4-trans-L-Hyp)ASChgQ-SL-acid, [N-Ac-(4-trans-L-Hyp)]-Ala-Ser-Chg-Gln-Ser-Leu-OH] (Ac-[Hyp]AS[Chg]QSL-OH) |  | 75 min |  | 
COc1cccc2c1C(=O)c1c(O)c3c(c(O)c1C2=O)C[C@@](O)(C(=O)CO)C[C@@H]3O[C@H]1C[C@H](NC(=O)[C@H](CC(C)(C)C)NC(=O)[C@H](CO)NC(=O)[C@H](CCC(N)=O)NC(=O)[C@@H](NC(=O)[C@H](CO)NC(=O)[C@H](C)NC(=O)[C@@H]2C[C@@H](O)CN2C(C)=O)C2CCCCC2)[C@H](O)[C@H](C)O1 |  |  | 25 min | 
